What was measured:
Format in all cases: in vivo
Zinnia elegans Jacq. = assay: Bioassay of herbicidal activity in greenhouse (further screening)
Method: (§1) Determination of herbicidal activity of compounds of the present invention against weeds was carried out by the following procedures:
(§2) Seeds of monocotyledonous and dicotyledonous weeds were sown in nutrition soil in paper pot (7 cm diameter), covered with soil in 1 cm and grown in the greenhouse under good growth conditions (temperature, atmospheric humidity, water supply). The compounds of the present invention as emulsifiable concentrate, were applied in pre-emergence and post-emergence treatment by track sprayer (Engineer Research Ltd., pressure 1.95 kg/cm^2, volume 500 L/hm^2, track speed 1.48 km/h). Pre-emergence treatment was conducted after seeding 24 hours and post-emergence treatment was done when the respective weeds reached predetermined leaf stage (grass weed 2- to 3-leaf stage, broad-leaf weed 2- to 4-leaf stage), the state of growth of the respective weeds were visually observed to determine the growth inhibition rate (%) in accordance with the following evaluation standard.
(§3) Growth inhibition rate (%): 0=no discernible action: 100=all weeds dead or not emerged.

[1] = tested on: Abutilon theophrasti Medic.; assay: as above
Method: as §1, §2, §3

[2] = tested on: Setaria glauca (L.) Beauv.; assay: as above
Method: as §1, §2, §3

[3] = tested on: Echinochloa crus-galli (L.) Beauv.; assay: as above
Method: as §1, §2, §3

[4] = tested on: broad-leaf weeds and grass weeds; assay: General screening of herbicidal activity in greenhouse; settings: 1000 g a.i./hm^2;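 note: 0 means no visible effect and 100 means all weeds dead or not emerged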
Method: as §1, §2, §3

[5] = pre-emergence, dose 600 g a.i./hm^2

SMILES	Growth inhibition rate, Post-emergence treatment, Zinnia elegans Jacq. (Zinnia elegans Jacq.; dose 7.5 g a.i./hm^2)	Growth inhibition rate, Post-emergence treatment, Zinnia elegans Jacq. (Zinnia elegans Jacq.; dose 15 g a.i./hm^2)	Growth inhibition rate, Post-emergence treatment, Zinnia elegans Jacq. (Zinnia elegans Jacq.; dose 30.0 g a.i./hm^2)	Growth inhibition rate, Post-emergence treatment, Zinnia elegans Jacq. (Zinnia elegans Jacq.; dose 60.0 g a.i./hm^2)	Growth inhibition rate, Post-emergence treatment, Zinnia elegans Jacq. (Zinnia elegans Jacq.; dose 120.0 g a.i./hm^2)	Growth inhibition rate, Post-emergence treatment, Abutilon theophrasti Medic. ([1]; dose 7.5 g a.i./hm^2)	Growth inhibition rate, Post-emergence treatment, Abutilon theophrasti Medic. ([1]; dose 15 g a.i./hm^2)	Growth inhibition rate, Post-emergence treatment, Abutilon theophrasti Medic. ([1]; dose 30.0 g a.i./hm^2)	Growth inhibition rate, Post-emergence treatment, Abutilon theophrasti Medic. ([1]; dose 60.0 g a.i./hm^2)	Growth inhibition rate, Post-emergence treatment, Abutilon theophrasti Medic. ([1]; dose 120.0 g a.i./hm^2)	Growth inhibition rate, Post-emergence treatment, Setaria glauca (L.) Beauv. ([2]; dose 7.5 g a.i./hm^2)	Growth inhibition rate, Post-emergence treatment, Setaria glauca (L.) Beauv. ([2]; dose 15 g a.i./hm^2)	Growth inhibition rate, Post-emergence treatment, Setaria glauca (L.) Beauv. ([2]; dose 30.0 g a.i./hm^2)	Growth inhibition rate, Post-emergence treatment, Setaria glauca (L.) Beauv. ([2]; dose 60.0 g a.i./hm^2)	Growth inhibition rate, Post-emergence treatment, Setaria glauca (L.) Beauv. ([2]; dose 120.0 g a.i./hm^2)	Growth inhibition rate, Post-emergence treatment, Echinochloa crus-galli (L.) Beauv. ([3]; dose 7.5 g a.i./hm^2)	Growth inhibition rate, Post-emergence treatment, Echinochloa crus-galli (L.) Beauv. ([3]; dose 15 g a.i./hm^2)	Growth inhibition rate, Post-emergence treatment, Echinochloa crus-galli (L.) Beauv. ([3]; dose 30.0 g a.i./hm^2)	Growth inhibition rate, Post-emergence treatment, Echinochloa crus-galli (L.) Beauv. ([3]; dose 60.0 g a.i./hm^2)	Growth inhibition rate, Post-emergence treatment, Echinochloa crus-galli (L.) Beauv. ([3]; dose 120.0 g a.i./hm^2)	other results
COC(=O)C1(C)CC(c2cc(-n3c(=O)cc(C(F)(F)F)n(C)c3=O)c(F)cc2Cl)=NO1 (centres unmarked) [Compound 5]	40%	45%	98%	100%	100%	100%	100%	100%	100%	100%	60%	65%	100%	100%	100%	45%	95%	100%	100%	100%	pre-emergence and post-emergence herbicidal activity against broad-leaf weeds and grass weeds [4]: good
COCCOC(=O)C1(C)CC(c2cc(-n3c(=O)cc(C(F)(F)F)n(C)c3=O)c(F)cc2Cl)=NO1 (centres unmarked) [Compound 16]	98%	100%	100%	100%	100%	75%	98%	100%	100%	100%	75%	98%	100%	100%	100%	50%	80%	100%	100%	100%	pre-emergence and post-emergence herbicidal activity against broad-leaf weeds and grass weeds [4]: good
CC(=O)OCCOC(=O)C1(C)CC(c2cc(-n3c(=O)cc(C(F)(F)F)n(C)c3=O)c(F)cc2Cl)=NO1 (centres unmarked) [Compound 17]	45%	55%	65%	90%	100%	95%	98%	100%	100%	100%	55%	60%	100%	100%	100%	30%	60%	100%	100%	100%	Growth inhibition rate, Post-emergence treatment, Zinnia elegans Jacq. (Zinnia elegans Jacq.; dose 600 g a.i./hm^2): 100%; Growth inhibition rate, Pre-emergence treatment, Zinnia elegans Jacq. (Zinnia elegans Jacq.; [5]): 90%; Growth inhibition rate, Post-emergence treatment, Abutilon theophrasti Medic. ([1]; dose 600 g a.i./hm^2): 100%; Growth inhibition rate, Pre-emergence treatment, Abutilon theophrasti Medic. [1, 5]: 90%; Growth inhibition rate, Post-emergence treatment, Setaria glauca (L.) Beauv. ([2]; dose 600 g a.i./hm^2): 100%; Growth inhibition rate, Pre-emergence treatment, Setaria glauca (L.) Beauv. [2, 5]: 85%; Growth inhibition rate, Post-emergence treatment, Echinochloa crus-galli (L.) Beauv. ([3]; dose 600 g a.i./hm^2): 100%; Growth inhibition rate, Pre-emergence treatment, Echinochloa crus-galli (L.) Beauv. [3, 5]: 95%; pre-emergence and post-emergence herbicidal activity against broad-leaf weeds and grass weeds [4]: good
CCCOC(=O)C1(C)CC(c2cc(-n3c(=O)cc(C(F)(F)F)n(C)c3=O)c(F)cc2Cl)=NO1 (centres unmarked) [Compound 7]	55%	60%	75%	98%	100%	75%	98%	100%	100%	100%	55%	90%	90%	100%	100%	25%	90%	98%	100%	100%	pre-emergence and post-emergence herbicidal activity against broad-leaf weeds and grass weeds [4]: good
CCCCOC(=O)C1(C)CC(c2cc(-n3c(=O)cc(C(F)(F)F)n(C)c3=O)c(F)cc2Cl)=NO1 (centres unmarked) [Compound 8]	90%	95%	95%	100%	100%	100%	100%	100%	100%	100%	60%	80%	100%	100%	100%	70%	95%	100%	100%	100%	pre-emergence and post-emergence herbicidal activity against broad-leaf weeds and grass weeds [4]: good
